In patent publication US20200054633A1 (priority 2017, published 2020):
“Also recorded” adds a separate entry of the source. Read-outs that look alike come from different tables or passages of the source.

Settings: for subjects with nausea / subjects with treatment-emergent diarrhea: Safety Set
Text: This study followed a randomized, double-blind, placebo-controlled, parallel-group, multicenter design.
Analysis set for safety: Safety Set included all subjects who received at least 1 dose of study drug.

O=C(O)[C@H]1C2CCC(CC2)[C@@H]1Nc1nc(-c2c[nH]c3ncc(F)cc23)ncc1F [Compound (1), Pimodivir]
TEAE: Hyperglycaemia (600 mg, OST placebo, N=74): 2 (2.7%) n (%) | TEAE: Hyperhidrosis (600 mg, OST placebo, N=74): 1 (1.4%) n (%) | TEAE: Hyperkalaemia (600 mg, OST placebo, N=74): 2 (2.7%) n (%) | TEAE: Hyperproteinaemia (600 mg, OST placebo, N=74): 0 n (%) | TEAE: Hypertension (600 mg, OST placebo, N=74): 0 n (%) | TEAE: Hyperuricaemia (600 mg, OST placebo, N=74): 0 n (%) | TEAE: Hypokalaemia (600 mg, OST placebo, N=74): 0 n (%) | TEAE: Hyponatraemia (600 mg, OST placebo, N=74): 0 n (%) | TEAE: Hypophosphataemia (600 mg, OST placebo, N=74): 0 n (%) | TEAE: Hypothermia (600 mg, OST placebo, N=74): 0 n (%) | TEAE: Increased appetite (600 mg, OST placebo, N=74): 1 (1.4%) n (%) | TEAE: Infections and infestations (600 mg, OST placebo, N=74): 1 (1.4%) n (%) | TEAE: Injury, poisoning and procedural complications (600 mg, OST placebo, N=74): 1 (1.4%) n (%) | TEAE: Insomnia (600 mg, OST placebo, N=74): 1 (1.4%) n (%) | TEAE: Investigations (600 mg, OST placebo, N=74): 10 (13.5%) n (%) | TEAE: Irritability (600 mg, OST placebo, N=74): 1 (1.4%) n (%) | TEAE: Labyrinthitis (600 mg, OST placebo, N=74): 0 n (%) | TEAE: Leukopenia (600 mg, OST placebo, N=74): 1 (1.4%) n (%) | TEAE: Lymph node pain (600 mg, OST placebo, N=74): 0 n (%) | TEAE: Lymphadenopathy (600 mg, OST placebo, N=74): 0 n (%) | TEAE: Lymphopenia (600 mg, OST placebo, N=74): 1 (1.4%) n (%) | TEAE: Metabolism and nutrition disorders (600 mg, OST placebo, N=74): 5 (6.8%) n (%) | TEAE: Micturition urgency (600 mg, OST placebo, N=74): 1 (1.4%) n (%) | TEAE: Middle ear effusion (600 mg, OST placebo, N=74): 0 n (%) | TEAE: Migraine (600 mg, OST placebo, N=74): 1 (1.4%) n (%) | TEAE: Muscle spasms (600 mg, OST placebo, N=74): 0 n (%) | TEAE: Musculoskeletal and connective tissue disorders (600 mg, OST placebo, N=74): 1 (1.4%) n (%) | TEAE: Musculoskeletal chest pain (600 mg, OST placebo, N=74): 0 n (%) | TEAE: Myalgia (600 mg, OST placebo, N=74): 0 n (%) | TEAE: Myocarditis (600 mg, OST placebo, N=74): 0 n (%) | TEAE: Nasal congestion (600 mg, OST placebo, N=74): 0 n (%) | TEAE: Nausea (600 mg, OST placebo, N=74): 3 (4.1%) n (%) | TEAE: Nephropathy (600 mg, OST placebo, N=74): 0 n (%) | TEAE: Nervous system disorders (600 mg, OST placebo, N=74): 4 (5.4%) n (%) | TEAE: Neutropenia (600 mg, OST placebo, N=74): 1 (1.4%) n (%) | TEAE: Neutrophil count decreased (600 mg, OST placebo, N=74): 4 (5.4%) n (%) | TEAE: Oedema peripheral (600 mg, OST placebo, N=74): 0 n (%) | TEAE: Oral herpes (600 mg, OST placebo, N=74): 1 (1.4%) n (%) | TEAE: Otitis media (600 mg, OST placebo, N=74): 0 n (%) | TEAE: Paraesthesia (600 mg, OST placebo, N=74): 0 n (%) | TEAE: Percussion test abnormal (600 mg, OST placebo, N=74): 0 n (%) | TEAE: Petechiae (600 mg, OST placebo, N=74): 0 n (%) | TEAE: Pharyngitis streptococcal (600 mg, OST placebo, N=74): 0 n (%) | TEAE: Pneumonia chlamydial (600 mg, OST placebo, N=74): 0 n (%) | TEAE: Protein urine (600 mg, OST placebo, N=74): 0 n (%) | TEAE: Protein urine present (600 mg, OST placebo, N=74): 0 n (%) | TEAE: Proteinuria (600 mg, OST placebo, N=74): 0 n (%) | TEAE: Pruritus (600 mg, OST placebo, N=74): 0 n (%) | TEAE: Psychiatric disorders (600 mg, OST placebo, N=74): 3 (4.1%) n (%) | TEAE: Rash (600 mg, OST placebo, N=74): 0 n (%) | TEAE: Red blood cells urine (600 mg, OST placebo, N=74): 0 n (%) | TEAE: Renal and urinary disorders (600 mg, OST placebo, N=74): 1 (1.4%) n (%) | TEAE: Renal failure (600 mg, OST placebo, N=74): 0 n (%) | TEAE: Renal failure chronic (600 mg, OST placebo, N=74): 0 n (%) | TEAE: Renal impairment (600 mg, OST placebo, N=74): 0 n (%) | TEAE: Respiratory, thoracic and mediastinal disorders (600 mg, OST placebo, N=74): 2 (2.7%) n (%) | TEAE: Rhonchi (600 mg, OST placebo, N=74): 0 n (%) | TEAE: Sensation of foreign body (600 mg, OST placebo, N=74): 0 n (%) | TEAE: Sinus bradycardia (600 mg, OST placebo, N=74): 0 n (%) | TEAE: Sinus congestion (600 mg, OST placebo, N=74): 0 n (%) | TEAE: Sinus tachycardia (600 mg, OST placebo, N=74): 0 n (%) | TEAE: Sinusitis (600 mg, OST placebo, N=74): 0 n (%) | TEAE: Skin and subcutaneous tissue disorders (600 mg, OST placebo, N=74): 2 (2.7%) n (%) | TEAE: Sleep disorder (600 mg, OST placebo, N=74): 1 (1.4%) n (%) | TEAE: Sleep terror (600 mg, OST placebo, N=74): 0 n (%) | TEAE: Syncope (600 mg, OST placebo, N=74): 0 n (%) | TEAE: Tachycardia (600 mg, OST placebo, N=74): 0 n (%) | TEAE: Thrombocytopenia (600 mg, OST placebo, N=74): 0 n (%) | TEAE: Tinnitus (600 mg, OST placebo, N=74): 0 n (%) | TEAE: Tongue discolouration (600 mg, OST placebo, N=74): 0 n (%) | TEAE: Tremor (600 mg, OST placebo, N=74): 0 n (%) | TEAE: Upper respiratory tract infection (600 mg, OST placebo, N=74): 0 n (%) | TEAE: Urinary tract infection (600 mg, OST placebo, N=74): 0 n (%) | TEAE: Urine ketone body present (600 mg, OST placebo, N=74): 0 n (%) | TEAE: Vascular disorders (600 mg, OST placebo, N=74): 0 n (%) | TEAE: Vertigo (600 mg, OST placebo, N=74): 0 n (%) | TEAE: Vomiting (600 mg, OST placebo, N=74): 3 (4.1%) n (%) | TEAE: Wheezing (600 mg, OST placebo, N=74): 1 (1.4%) n (%) | TEAE: White blood cell count decreased (600 mg, OST placebo, N=74): 1 (1.4%) n (%) | Worst grade 1 or 2 TEAE (600 mg, OST placebo, N=74): 34 (45.9%) | Worst grade 3 TEAE (600 mg, OST placebo, N=74): 5 (6.8%) | Worst grade 3 or 4 TEAE (600 mg, OST placebo, N=74): 5 (6.8%) | Worst grade 4 TEAE (600 mg, OST placebo, N=74): 0 | subjects with nausea (Compound (1) 300 mg bid): 4.1% | subjects with treatment-emergent diarrhea (Compound (1) 300 mg bid): 6.8% | severe events considered possibly related to trial medication (Compound (1) 600 mg bid): blood creatine phosphokinase increased and diarrhea | subjects with nausea (Compound (1) 600 mg bid): 4.1% | subjects with treatment-emergent diarrhea (Compound (1) 600 mg bid): 27.0% | treatment-emergent serious adverse event (SAE) (Compound (1) 600 mg bid, one subject, doubtfully related according to the investigator): an SAE of moderate increased alanine aminotransferase; also recorded: a moderate treatment-emergent AE (TEAE) of increased alanine aminotransferase | overall safety and tolerability (clinical study, 300 or 600 mg bid): generally safe and well tolerated
